Data: patent US11207330B2, “Mirtazapine for use in medication overuse headache based on tension-type headache” (Curatis AG, priority 2019, dated 2021)

Legend:
[1] = system: patients with daily medication overuse headache (MOH) based on tension-type headache; assay: Headache diary AUC (headache duration multiplied with headache intensity) in MOH patients, placebo then mirtazapine; type: in vivo, human; conditions: for AUC (sum of daily headache duration multiplied with headache intensity): 15 to 30 mg mirtazapine per day for 8 weeks, last four weeks of intake, analgesics allowed; for Reduction of AUC versus placebo: mirtazapine 15 to 30 mg per day vs placebo period, last four weeks
Protocol: (§1) a) Patients had daily medication overuse headache (MOH) originating from daily analgesic use primarily against tension-type headache as primary headache. They were treated first with placebo for 8 weeks, followed by two weeks of wash-out (taking placebo), and then administration of 15 to 30 mg of mirtazapine per day for 8 weeks. During that time they were allowed to continue taking their analgesics as usual, if they felt it was necessary.
At the same time, they had to keep a diary where they had to write down the frequency and duration of their headache as well as the headache intensity. After completion of the study the diaries were evaluated and the daily recordings of headache duration was multiplied with headache intensity to give the “AUC”, which means “area under the curve”. The results shown in table 1 and table 2 below are from the last four weeks of intake of either placebo or mirtazapine. […] It can be seen that both patients experienced improvement of their headache upon administration of mirtazapine.
FIG. 1 depicts the subjective well-being of patients, i.e. decreased number of headache attacks, shorter headache attacks with lower headache intensity. The lower the count of the y-axis, the better is the subjective well-being. AUC means area under the curve. AUC was calculated as the sum of the daily recordings of headache duration multiplied with headache intensity.

[2] = system: patients with daily medication overuse headache (MOH) based on tension-type headache; assay: Intake of overused analgesic medication recorded by the same MOH patients; type: in vivo, human; conditions: for Analgesics Usage: 15 to 30 mg mirtazapine per day for 8 weeks, last four weeks of intake; for Reduction of Analgesics Usage versus placebo: mirtazapine 15 to 30 mg per day vs placebo period, last four weeks
Protocol: as §1
b) Moreover, the intake of overused analgesic medication was recorded by the same patients and during the time frame as described above in (a). Patient 1 reduced the intake of overused medication by 80% (Table 2). As for patient 2, the reduction is 15%, whereby both patients additionally benefit from improved well-being, i.e. from decreased number of headache attacks, shorter headache attacks with lower headache intensity (see above).

Which “AUC (sum of daily headache duration multiplied with headache intensity)” value ([1]; Patient 1) does the source give for `CN1CCN2c3ncccc3Cc3ccccc3C2C1` (racemic) [Mirtazapine, (RS)-(±)-2-methyl-1,2,3,4,10,14b-hexahydropyrazino[2,1-a]pyrido[2,3-c][2]benzazepine] here?
The value was 420.

What about the “Reduction of AUC versus placebo” value ([1]; Patient 1) of the same molecule?
Its value is 62%.

And the “AUC (sum of daily headache duration multiplied with headache intensity)” value ([1]; Patient 2)?
The value was 895.

What about the “Reduction of AUC versus placebo” value ([1]; Patient 2) of the same molecule?
Its value is 34%.

What about the “Analgesics Usage” value ([2]; Patient 1) of the same molecule?
Its value is 2.

What about the “Reduction of Analgesics Usage versus placebo” value ([2]; Patient 1) of the same molecule?
Its value is 80%.

And the “Reduction of Analgesics Usage versus placebo” value ([2]; Patient 1, listed as mirtazapine)?
Its value is 80%.

And the “Analgesics Usage” value ([2]; Patient 2)?
The value was 47.

And the “Reduction of Analgesics Usage versus placebo” value ([2]; Patient 2)?
Its value is 15%.

And the “Reduction of Analgesics Usage versus placebo” value ([2]; Patient 2, listed as mirtazapine)?
Its value is 15%.
